{
  "source": "patent US8592419B2",
  "about": "“Ceramides and apoptosis-signaling ligand” (MUSC Foundation for Research Development, priority 2004, dated 2013)",
  "key": {"cytochrome c": {"system": "cytochrome c", "experiment": "Cytochrome c release into the cytosol (Western blot)", "assay_type": "cell-based, human", "details": "5 or 10 μM, DU145 cells", "description": "(§1) Immunoblot analysis. Cells were seeded in 60mm plates as described above and treated accordingly. Cells were lifted by gently scraping the plates, washed once with ice cold PBS and then lysed in lysis buffer (PBS, 1% Triton X-100, 10% glycerol) containing protease inhibitors pepstatin A (0.5 μg/ml), leupeptin (0.5 μg/ml), aprotinin (5 μg/ml), and PMSF (100 μg/ml) for 10 minutes on ice. Insoluble material was removed by centrifugation at 14,000 rpm for 15 minutes at 4° C. The supernatants were then supplemented with SDS at a final concentration of 2% and stored at −80° C. Protein concentrations were determined using the DC Protein Assay (BioRad Laboratories; Hercules, CA, USA) according to the manufacturer's instructions. 50 μg of protein per sample (unless otherwise indicated) were separated on NuPAGE 4-12% Bis-Tris gels (Invitrogen; Carlsbad, CA, USA) and transferred to nitrocellulose membranes (BioRad). […]\nSubcellular fractionation. […] Enzyme activity per 50 μg lysate was measured using the fluorogenic cathepsin B substrate 111 (Calbiochem) according to the manufacturer's protocol."}, "Bax": {"system": "Bax", "experiment": "Immunoblot of Bax", "assay_type": "cell-based, human", "details": "PC-3 cells, 10 μM", "description": "as §1, with “(BioRad). Following transfer, membranes were blocked for 1 hour at room temperature in Tris-buffered saline (TBS) containing 0.1% Tween-20 and 5% nonfat dry milk and incubated overnight at 4° C. with primary antibody at a dilution of 1:2,000(actin), 1:1,000(cytochrome c, COX IV, Bax, Bak, p53, p38, P-p38), 1:500(P-JNK, JNK), 1:250 (AC, p73), or 1:400(LAMP-1, cathepsin B). Overnight incubations were performed in 5% milk in TBS-Tween.” for “(BioRad).”"}, "ASMase": {"molecular_target": "T1, ASMase (Homo sapiens, UniProt P17405)", "T1 construct": "DU145 cells were lysed in 50 mM Tris (pH=7.4) using a probe sonicator; endogenous in cells; host or cells: DU145 (lysate of treated cells)", "T1 sequence (P17405 47-631)": "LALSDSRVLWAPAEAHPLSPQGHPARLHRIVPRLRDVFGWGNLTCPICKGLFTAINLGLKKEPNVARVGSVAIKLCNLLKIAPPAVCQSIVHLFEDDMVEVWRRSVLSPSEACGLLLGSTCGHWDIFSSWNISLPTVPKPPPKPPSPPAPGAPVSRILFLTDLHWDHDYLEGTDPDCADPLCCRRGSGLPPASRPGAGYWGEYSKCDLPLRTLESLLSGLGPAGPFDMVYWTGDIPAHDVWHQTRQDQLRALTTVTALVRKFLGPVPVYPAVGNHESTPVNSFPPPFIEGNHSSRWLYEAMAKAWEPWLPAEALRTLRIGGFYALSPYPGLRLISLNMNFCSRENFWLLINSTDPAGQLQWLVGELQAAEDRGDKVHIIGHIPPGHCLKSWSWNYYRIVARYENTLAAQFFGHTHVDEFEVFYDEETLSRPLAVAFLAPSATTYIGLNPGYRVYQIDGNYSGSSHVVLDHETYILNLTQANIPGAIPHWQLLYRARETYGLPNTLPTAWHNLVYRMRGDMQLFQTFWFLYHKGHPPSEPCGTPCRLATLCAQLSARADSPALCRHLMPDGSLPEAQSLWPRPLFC", "experiment": "Acid sphingomyelinase activity assay", "assay_type": "cell-based", "details": "DU145 cells, 10 μM", "description": "Acid Sphingomyelinase Activity Assay. DU145 cells were lysed in 50 mM Tris (pH=7.4) using a probe sonicator. Cellular debris was removed after centrifugation at 3000×g for 10 minutes. Proteins (50 μg) were adjusted to a total volume of 100 μl and the reaction was started by adding 100 μl of the reaction mixture containing 1 mM EDTA, 250 mM sodium acetate (pH 5.0), 100 μM [choline-methyl-^14C] sphingomyelin and 0.1% Triton X. After incubation at 37° C. for one hour, the reaction was stopped by adding 1.5 ml of chloroform/methanol (2:1) and then 200 μl of water. Phases were separated by centrifugation at 2000×g for 5 minutes. Quantitation of the amount of released radioactive phosphocholine was determined by subjecting 400 μl of the upper phase to scintillation counting."}, "[1]": {"system": "total ceramide levels in DU145 cells", "experiment": "Ceramide measurement by mass spectrometry", "assay_type": "cell-based, human", "details": "10 μM", "description": "Ceramide measurement. 2.1×10^6 cells were seeded in 100 mm plates overnight. The next day, media was removed and replaced with media containing vehicle control or LCL204 (10 μM) for indicated time points. Following treatment, cells were harvested by gentle scraping and immediate centrifugation at 4° C. for 5 minutes at 400×g. Cell pellets were then resuspended in ice cold PBS and stored at −80° C. For sphingolipid analysis, cell pellets were examined using mass spectometry as previously described (61)."}, "p73": {"system": "p73", "experiment": "Immunoblot of p73", "assay_type": "cell-based, human", "description": "(§2) Immunoblot analysis. Cells were seeded in 60mm plates as described above and treated accordingly. Cells were lifted by gently scraping the plates, washed once with ice cold PBS and then lysed in lysis buffer (PBS, 1% Triton X-100, 10% glycerol) containing protease inhibitors pepstatin A (0.5 μg/ml), leupeptin (0.5 μg/ml), aprotinin (5 μg/ml), and PMSF (100 μg/ml) for 10 minutes on ice. Insoluble material was removed by centrifugation at 14,000 rpm for 15 minutes at 4° C. The supernatants were then supplemented with SDS at a final concentration of 2% and stored at −80° C. Protein concentrations were determined using the DC Protein Assay (BioRad Laboratories; Hercules, CA, USA) according to the manufacturer's instructions. 50 μg of protein per sample (unless otherwise indicated) were separated on NuPAGE 4-12% Bis-Tris gels (Invitrogen; Carlsbad, CA, USA) and transferred to nitrocellulose membranes (BioRad). Following transfer, membranes were blocked for 1 hour at room temperature in Tris-buffered saline (TBS) containing 0.1% Tween-20 and 5% nonfat dry milk and incubated overnight at 4° C. with primary antibody at a dilution of 1:2,000(actin), 1:1,000(cytochrome c, COX IV, Bax, Bak, p53, p38, P-p38), 1:500(P-JNK, JNK), 1:250 (AC, p73), or 1:400(LAMP-1, cathepsin B). Overnight incubations were performed in 5% milk in TBS-Tween. Following overnight incubation, membranes were washed three times for 10 minutes each in TBS-Tween and incubated for 1 hour at room temperature with secondary antibody in 5% milk TBS-Tween at a dilution 1:5,000 (goat anti-mouse IgG) or 1:50,000 (goat anti-rabbit). Membranes were then washed three times more and incubated for 5 minutes at room temperature with Super Signal HRP substrate (Pierce Biotechnology Inc.; Rockford, IL, USA)."}, "PUMA": {"system": "PUMA", "experiment": "Immunoblot of PUMA", "assay_type": "cell-based, human", "details": "for PUMA up-regulation: 10 μM", "description": "as §2"}, "cathepsin B": {"system": "cathepsin B", "experiment": "Cathepsin B translocation to cytosol (subcellular fractionation, Western blot, activity assay)", "assay_type": "cell-based, human", "details": "DU145 cells", "description": "Subcellular fractionation. For cytochrome c immunoblot, cells were seeded and treated as described above. Cells were harvested at 4, 12, or 24 hours after treatment as described previously (62) and proteins (15 μg) were separated by gel electrophoresis and immunoblotted for cytochrome c as above. The protocol for separating cytosolic and heavy membrane fractions is a modified version of that used by Desahger et al. (63). Briefly, cells were seeded and treated in 60 mm plates as described above. Cells were harvested at 0, 0.5, 1, and 2 hours after treatment, washed once in PBS, and gently resuspended in isotonic mitochondrial buffer (210 mM mannitol, 70 mM sucrose, 1 mM EDTA, 10 mM HEPES, pH 7.0) supplemented with protease inhibitors. Cells were then transferred to 1.5 mL microcentrifuge tubes and homogenized using 40 strokes with a polished (fine grain sandpaper) Teflon pestle. Fractions were separated using differential centrifugation as described in the reference. All fractions were stored at −80° C. Cytosolic and heavy membrane fractions (30 and 15 μg, respectively) were separated on NuPAGE gels and immunoblotted as described above. […] Enzyme activity per 50 μg lysate was measured using the fluorogenic cathepsin B substrate 111 (Calbiochem) according to the manufacturer's protocol."}, "p38 MAPK": {"system": "p38 MAPK", "experiment": "Immunoblot of phosphorylated p38 MAPK", "assay_type": "cell-based, human", "details": "PPC-1/pcDNA3 vector control cells", "description": "as §2, with “Following overnight incubation, membranes were washed three times for 10 minutes each in TBS-Tween and incubated for 1 hour at room temperature with secondary antibody in 5% milk TBS-Tween at a dilution 1:5,000 (goat anti-mouse IgG) or 1:50,000 (goat anti-rabbit). Membranes were then washed three times more and incubated for 5 minutes at room temperature with Super Signal HRP substrate (Pierce Biotechnology Inc.; Rockford, IL, USA).” left out"}, "[2]": {"system": "mitochondria membrane potential in DU145 cells", "experiment": "Mitochondria membrane potential measurement (JC-1)", "assay_type": "cell-based, human", "details": "5 μM", "description": "Mitochondria membrane potential measurement. Cells were seeded at a density of 7.49×10^5 cells per plate in 60 mm plates overnight. The next day, media was replaced with media containing vehicle control or LCL204 (5 μM). Cells were lifted using Cell Stripper (Mediatech), washed twice in PBS, and resuspended in 3 ml 1×JC-1 reagent solution (dissolved in medium). Samples were incubated at 37° C. for 15 minutes, washed twice with PBS, and resuspended in 0.5 ml growth medium before analysis by flow cytometry using a Beckton-Dickinson FACSCalibur (590 nm/527 nm emission). A minimum of 10,000 events were scored for each sample."}},
  "data": [
    {"smiles": "CCCCCCCCCCCCCCN[C@H](CO)[C@H](O)c1ccc([N+](=O)[O-])cc1.Cl", "note": "[LCL204, (1R,2R) D-threo-2-N-Tetradecylamino-1-(4′-nitrophenyl)-1,3-propandiol hydrochloride]", "values": [
      {"measurement": "time by which cytochrome c release into the cytosol was detected", "setting": "cytochrome c", "result": "≤ 4", "unit": "h"},
      {"measurement": "Bax protein levels", "setting": "Bax", "result": "unaffected"},
      {"measurement": "earliest decrease in ASMase activity", "setting": "ASMase", "result": 30, "unit": "min"},
      {"measurement": "total ceramide levels", "setting": "[1]", "result": "rise in total ceramide levels within one hour"},
      {"measurement": "p73β induction", "setting": "p73; PC-3 cells, 10 μM", "result": "p73β induction was detected after only two hours"},
      {"measurement": "p73β induction", "setting": "p73; PPC-1/pcDNA3 cells", "result": "time-dependent p73β induction"},
      {"measurement": "PUMA up-regulation", "setting": "PUMA; DU145 cells", "result": "up-regulated in DU145 cells after eight hours"},
      {"measurement": "PUMA up-regulation", "setting": "PUMA; PC-3 cells", "result": "earlier (four hours) in PC-3 cells"},
      {"measurement": "time of PUMA induction", "setting": "PUMA; PPC-1/pcDNA3 control cells, 7.5 μM", "result": 90, "unit": "min"},
      {"measurement": "time within which cytosolic cathepsin B activity increased", "setting": "cathepsin B; 10 μM, enzyme activity assay", "result": "≤ 30", "unit": "min"},
      {"measurement": "time within which active cathepsin B was detected in the cytosolic fraction", "setting": "cathepsin B; Western blot", "result": "≤ 30", "unit": "min"},
      {"measurement": "time by which p38 MAPK phosphorylation was induced", "setting": "p38 MAPK", "result": "≤ 90", "unit": "min"},
      {"measurement": "earliest observed decrease in ΔΨm", "setting": "[2]", "result": 2, "unit": "h"}
    ]}
  ]
}
